Assays:
Format in all cases: in vivo
[1] = system: redroot pigweed (Amaranthus retroflexus, AMARE); assay: Test A pre-emergence, redroot pigweed; settings: after 13 d
In short: (§1)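 Damage rated visually at 13 d on a 0–100 scale (100 = plant killed). Pre-emergence spray one day after sowing; doses 15.625, 62.5 or 250 g/ha from an acetone/water 50:50 formulation with 0.5% Tween 20. Glasshouse at 24/16° C., 14 h photoperiod, 65% humidity.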

[2] = system: velvetleaf (Abutilon theophrasti, ABUTH); assay: Test A pre-emergence, velvetleaf; settings: after 13 d
In short: as §1

[3] = system: wheat; assay: Test D pre-emergence, wheat seed treated with a herbicide safener; settings: 100=total damage, 0=no damage
Protocol: A formulation containing 50 g/L of the test chemical was prepared by dissolving the active ingredient in a mixture of organic solvents and emulsifier, details of which are provided in the table. This formulation was then mixed with a small, variable amount of acetone to aid dissolution, before addition of a 0.2% v/v aqueous solution of an adjuvant, as the aqueous diluent, to form an aqueous spray solution which contains a predetermined concentration of the active ingredient.
This aqueous spray solution was then sprayed onto plants including maize and wheat that had been seed treated with a herbicide safener, after one day's cultivation (for pre-emergence) or after about 12 days' cultivation (for post-emergence). The plants were grown from seeds sown in standard soil, placed in a glasshouse under controlled conditions (at 24/18° C. or 20/16° C., day/night; 16 h light; 65% humidity). After spray application the plants were then grown in a glasshouse under the same conditions and watered twice daily. After 15 d for post-emergence and 20 DAA for pre-emergence the test was evaluated (100=total damage to plant; 0=no damage to plant).

SMILES | damage to plant (100=total damage; 0=no damage) AMARE ([1]; Pre-Emergence at 15.625 g/ha) | damage to plant (100=total damage; 0=no damage) AMARE ([1]; Pre-Emergence at 62.5 g/ha) | damage to plant (100=total damage; 0=no damage) AMARE ([1]; Pre-Emergence at 250 g/ha) | damage to plant (100=total damage; 0=no damage) ABUTH ([2]; Pre-Emergence at 15.625 g/ha) | damage to plant (100=total damage; 0=no damage) ABUTH ([2]; Pre-Emergence at 62.5 g/ha) | damage to plant (100=total damage; 0=no damage) ABUTH ([2]; Pre-Emergence at 250 g/ha) | damage to plant, TRZAW ([3]; rate 15, 20 DAA) | damage to plant, TRZAW ([3]; rate 30, 20 DAA) | damage to plant, TRZAW ([3]; rate 60, 20 DAA) | damage to plant, TRZAW ([3]; rate 130, 20 DAA) | damage to plant, TRZAW ([3]; rate 250, 20 DAA) | damage to plant, TRZAW ([3]; rate 500, 20 DAA) | TRZAW damage rating ([3]; Rates 15, 20 DAA) | TRZAW damage rating ([3]; Rates 30, 20 DAA)
CCn1nc([C@H]2CN(C)C(=O)[C@@H]2C(=O)Nc2cccc(F)c2F)c2ccc(F)cc21 [Compound 4] | 0 | 20 | 40 | 0 | 0 | 0 | 0 | 0 | 0 | 0 | 0 | 0 | – | –
CN1CC(c2cc(Cl)n(C)n2)C(C(=O)Nc2ccc(F)c(F)c2F)C1=O (racemic) [Compound 31] | 0 | 0 | 0 | 0 | 0 | 0 | – | – | 0 | 0 | 0 | 0 | 0 | 0
CN1CC(c2cnn(C)c2C(F)(F)F)C(C(=O)Nc2cccc(F)c2F)C1=O (racemic) [Compound 25] | 0 | 0 | 0 | 0 | 10 | 40 | 0 | 0 | 0 | 0 | 0 | 0 | – | –
CN1CC(c2cc(C(F)(F)F)n(C)n2)C(C(=O)Nc2ccccc2F)C1=O (racemic) [Compound 9] | 0 | 0 | 20 | 0 | 0 | 0 | 0 | 0 | 0 | 0 | 0 | 0 | – | –

Source: US20220281848A1, “PYRAZOLE-SUBSTITUTED PYRROLIDINONES AS HERBICIDES” (FMC Corporation, priority 2019, published 2022)
